# Experiment: Liposome alanine efflux coupled with enzymatic assays
# Settings: alanine efflux after one hour of exposure; alanine-loaded DPPC/cholesterol (3:1) liposomes; carrier added in DMSO; control with no carrier 0.7
# Method: Two sets of tests were undertaken to determine the viability of such aminophosphonate compounds as drug carriers in liposome-based delivery systems. The first evaluated liposome efflux coupled with enzymatic assays. In such an experiment, unilamellar liposomes loaded with 300 mM of alanine (an amino acid) were prepared from dipalmitoyl phosphatidyl choline (DPPC) and cholesterol (3:1 molar ratio) (in accordance with Torchilin, V. et al., Liposomes 2003, Second Edition, Oxford Press). Several samples of alanine-loaded liposomes were then loaded further with identical amounts of the different aminophosphonate carriers from above (with DMSO as a solvent) thereby producing different samples with different carriers but with same concentrations. The liposomes were then measured for alanine efflux after one hour of exposure as the conversion of alanine to pyruvate, catalyzed by Glutamic-Pyruvic Transmaminase enzyme, and further to lactate, catalyzed by the enzyme Lactate Dehydrogenase, accompanied by the oxidation of nicotinamide cofactor NADH to NAD^+ (as monitored by UV spectroscopy). The results are tabulated below (with a control of no carrier): […]
row,Structure (SMILES),Alanine Flux [nmol/h × m^2]
1,COP(=O)(OC)C(C)(C)NCc1ccccc1 [Example 1],4.4
2,CCCCOP(=O)(OCCCC)C(C)(C)NCc1ccccc1 [Example 2],3.1
3,CCCCC(CC)COP(=O)(OCC(CC)CCCC)C(C)(C)NCc1ccccc1 (stereo not shown) [Example 3],4.3
4,COP(=O)(OC)C1(NCc2ccccc2)CCCCC1 [Example 4],7.2
5,CCCCOP(=O)(OCCCC)C1(NCc2ccccc2)CCCCC1 [Example 5],4.4
6,COP(=O)(OC)C(C)(C)Nc1ccccc1 [Example 6],7.8
7,CCCCOP(=O)(OCCCC)C1(Nc2ccccc2)CCCCC1 [Example 7],4.4

# — patent US20100178326A1, “AMINOPHOSPHONATE CARRIERS FOR LIPOSOME-BASED DRUG RELEASE SYSTEMS” (priority 2008, published 2010)
